Results as given in patent US20250269072A1, “PROCESSES FOR PREPARING RADIOLABELLED CONJUGATES” (CENTENARY INSTITUTE OF CANCER MEDICINE AND CELL BIOLOGY, priority 2021, published 2025).

Key:
Type in all cases: in vivo
[1] = In-human study of ^68Ga-CDI: biodistribution (PET CT, blood, urine)
Experimental: (§1) Subjects were encouraged to be well orally hydrated prior to ^68Ga-CDI administration, otherwise there was no preparation required. Two intravenous cannulas were placed (one for administration of ^68Ga-CDI and the other blood sampling during the study). Immediately prior to ^68Ga-CDI administration clinical assessment of participants was performed, vital signs (blood pressure, heart rate, respiratory rate, arterial oxygen saturation and temperature) measured and a 12-lead electrocardiogram (ECG) obtained and QTc calculated according to Bazett's formula to confirm eligibility. ^68Ga-CDI was administered as an intravenous bolus.
(§2) Eight serial PET scans were then performed from skull vertex to the proximal femora. The first PET scan commenced immediately following administration of ^68Ga-CDI, with subsequent scans commencing at approximately 7, 17, 29, 47, 64, 120 and 180 minutes after administration (+/−5 minutes). All scans were performed on a Phillips ingenuity TF 128 PET CT scanner (Philips Medical Systems, Cleveland) with acquisition times increasing for each subsequent scan ranging from 30 s/bed (immediately after administration) to 240 s/bed (at 180 minutes after administration) to compensate for excretion and decay. All PET scans were reconstructed using CT attenuation correction with a time of flight, list-mode, blob-based, ordered subsets maximum likelihood expectation maximization algorithm (BLOB-OS-TF) (reconstructed voxel size 4×4×4 mm).
Immediately prior to the scan commencing at approximately 47 minutes post administration a low-dose, non-contrast CT of the same region was performed for attenuation correction and localisation (of the first six scans during which time the patient had not moved) (44-120 mAs, 120-140 kV adjusted for body weight and body mass index, iDose 3 iterative reconstruction, reconstructed voxel size 1.17×1.17×3 mm). Ultra-low dose non-contrast CT (25 mAs, 100 kV, filtered back projection reconstruction, reconstructed voxel size 1.17×1.17×3 mm) was performed for attenuation correction immediately prior to the 120 minute and 180 minute PET scans.
(§3) During and immediately following completion of the scanning protocol, subjects were clinically assessed for adverse reactions and vital signs measured. Blood was collected for venous radioactivity measurements at 1, 2 and 3 hours following ^68Ga-CDI administration. Subjects were asked to void between 1.5 to 2 h and 2.75 to 3 h after ^68Ga-CDI administration, urine collected, the volume measured, and an aliquot counted in a gamma counter to determine activity concentration. Following completion of the scanning protocol, ECG was recorded, and blood collected for biochemical and haematological assessment.
(§4) For analysis of uptake and biodistribution in normal tissues and organs, spherical volumes of interest (VOIs) were drawn on the Digital Imaging and Communications in Medicine (DICOM) ^68Ga-CDI-PET emission data on a workstation (IntelliSpace Portal, V5.0.2.60000, Philips Medical System, Best, The Netherlands) by an experienced nuclear medicine physician over clearly tumor-free regions of organs. VOI diameter varied depending on organ size but where possible was at least 10 mm. Spherical VOIs were also drawn over all tumor deposits greater than 10 mm in diameter. These VOIs were replicated across all time points and the mean, maximum and standard deviation of the activity concentration (Bq/mL) of all VOIs at each time point was recorded. Activity concentration was used to calculate the % injected activity (% IA) for organs and tissues based on the masses of source organs for standard phantom male and female models (Stabin & Siegel, Health Phys. 2003; 85:294-310). Mean, maximum and standard deviation of the SUV for each VOI was also a calculated from the activity concentration using the slope intercept stored with the DICOM CDI PET emission data.

[2] = system: tumor deposits; assay: In-human study of ^68Ga-CDI: tumor uptake
Experimental: as §2, §4

[3] = In-human study of ^68Ga-CDI: safety and tolerability; settings: 5 subjects
Description: This open label, single arm interventional study recruited subjects with histologically or cytologically confirmed solid malignancy with at least one measurable lesion >2 cm. The study was approved by the South Eastern Sydney Local Health District Human Research Ethics committee (2019/ETH04821) and all subjects signed an informed consent form. […] Within 28 days of undergoing the study subjects were screened to ensure they met inclusion and exclusion criteria and written consent obtained. Although not an inclusion criteria for participation in this study, all patients also underwent an FDG PET CT between 3-11 days prior to CDI PET CT as part of standard of care.
as §1, §3
On the day following the ^68Ga-CDI PET CT subjects were clinically assessed for adverse reactions, vital signs, ECG obtained, and blood collected for biochemical and haematological assessment. […]

SMILES: O=C(O)CNC(=O)[C@H](CSCC(=O)Nc1ccc([As](O)O)cc1)NC(=O)CC[C@H](NC(=O)CCC1C(=O)[O][68Ga]2[O]C(=O)CN3CCN(CCN1CC3)CC(=O)[O]2)C(=O)O (stereo partly shown) [^68Ga-NODAGA-GSAO]
- activity remaining in the blood pool, average ([1]; 1 hour): 12.2 % IA
- average SUV kidneys ([1]; 1 hour post injection): 5.3 SUV
- activity remaining in the blood pool, average ([1]; 2 hours): 8.8 % IA
- average SUV kidneys ([1]; 2 hours post injection): 4.9 SUV
- activity remaining in the blood pool, average ([1]; 3 hours): 7.7 % IA
- average SUV kidneys ([1]; 3 hours post injection): 4.0 SUV
- total activity excreted in urine ([1]; by 90 minutes): 39±18%
- tumor uptake SUVmax ([2]; breast carcinoma): 2.5
- tumor uptake SUVmax ([2]; metastatic colorectal carcinoma): 4.4
- tumor uptake SUVmax ([2]; metastatic cutaneous squamous cell carcinoma): 6.5
- tumor uptake SUVmax ([2]; metastatic ovarian carcinoma): 2.7
- tumor uptake SUVmax ([2]; squamous cell carcinoma of the oesophagus): 5.7
- tumor retention ([2]; tumor in 4 of the 5 patients): prolonged retention throughout the duration of imaging
- adverse or pharmacologic effects [3]: no adverse or clinically detectable pharmacologic effects
- vital signs, laboratory studies, electrocardiograms [3]: No significant changes
- tolerability ([3]; 205±4.1 MBq i.v.): well tolerated
